Laboratory results: publication PMC5881471, “CDK2 inhibitors as candidate therapeutics for cisplatin- and noise-induced hearing loss” (The Journal of Experimental Medicine, 2018)

target: CDK2 (Mus musculus, UniProt P97377); test: immunoprecipitated CDK2 kinase assay, […]histone H1 substrate; cisplatin-treated cells ([…] from untreated cells); type: biochemical; settings: not given

**Q.** With `O=C1Cc2c([nH]c3ccc(Br)cc23)-c2ccccc2N1` [kenpaullone] as the compound, how does the IC50 read?
**A.** 1.7 ± 0.9 µM

tested on: not listed separately; test: in vitro; set-up: CellTiter-Glo cell viability, compound alone; settings: mouse, hei-oc1 cells; compound alone; read-out: LD50 (μM) in HEI cells
Source text: For this screen, caspase-3 cleavage was chosen as the endpoint indicating cisplatin-induced cell death, as it allowed the inhibition of cell death to be monitored at the level of any intracellular molecular target upstream of caspase-3 cleavage in the HEI-OC1 cell line ([Kalinec et al., 2003]; [Kim et al., 2010]). […] This screen has been described in detail elsewhere ([Teitz et al., 2016]). Assays were first optimized at the bench. Optimized aspects included the number of cells to be plated (1,600 cells/well), the cisplatin concentration (50 µM, based on the dose–response curve), the incubation time (22 h at 33°C in 10% CO2), and the concentration of pifithrin-α (17 µM). The Caspase-Glo 3/7 assay (Promega), which enables the measurement of light emitted as the result of caspase cleavage and is suitable for HTS, was used. The linearity of the Caspase-Glo 3/7 assay was validated, and it was verified that 0.5% DMSO had no effect on the cell death kinetics ([Hall et al., 2014]). Compound toxicity was tested by cell viability assay CellTiter-Glo (Promega) with compound alone. The Caspase-Glo 3/7 assay was then tested for reproducibility in the St. Jude robotic systems in 384-well plates (white, solid-bottom, tissue culture–treated, polystyrene plates; Corning). By using a pin tool, test compounds dissolved in DMSO were added to the screen to a final concentration of 8 µM, and cisplatin solution in PBS was added 2 min later to each well to a final concentration of 50 µM (in <0.5% DMSO; Fig. S1 A). The cells were incubated with the test compounds and cisplatin for 22 h at 33°C in 10% CO2, with the medium being as previously described ([Kalinec et al., 2003]); no γ IFN was added to slow the cells’ growth rate and to mimic as closely as possible the conditions of postmitotic, nondividing sensory epithelial (organ of Corti) cells. The 384-well plates were shaken and centrifuged after compound addition to enhance the reprod  Figure 1. […] (A) Screening of a bioactive compound library of 4,385 unique compounds, including 845 FDA-approved drugs, in HEI-OC1 cells. Cells treated with 50 µM cisplatin (red dots) were assigned 100% caspase-3/7 activity. Cells not treated with cisplatin, i.e., those grown in medium only (black dots) were assigned 0% caspase-3/7 activity. Each compound was added to a final concentration of 8 µM in the presence of 50 µM cisplatin (cyan dots). The cell-based screen mean Z′ was 0.75, the signal window was 12, and the signal fold change was 4.9. […] The caspase-3/7 IC50 activity and structure are indicated for each compound. Error bars: SEM. […] Phalloidin labels the HCs. (I–K) OHC survival (percentage; mean ± SEM) after treatment with various concentrations of compounds and/or cisplatin (CIS). The number of cochlear explants analyzed is indicated in each bar. *, P < 0.05 and **, P < 0.01 by one-way ANOVA followed by a Bonferroni comparison. We identified 177 hits that reduced cisplatin-induced caspase-3/7 activity by 60% or more. These compounds were further validated and characterized by dose-responsive analysis for potency and toxicity in HEI-OC1 cells; toxicity was assessed by a cell viability assay (CellTiter-Glo) with the test compounds alone (Fig. 1, B–D; and Fig. S1, E–K). The top 10 hits in this screen (with IC50 values in the HEI-OC1 cells of 0.04–6.2 µM) and their protective properties, as investigated in this study, are summarized in Table S1. The FDA has approved three of the compounds (leflunomide, [compound left out], and olsalazine sodium) for treating other medical conditions.

**Q.** Which CC50 at 22 h does the source give for `CCCCCC[C@H]1C(=O)O[C@H](C)[C@H](NC(=O)c2cccc(NC=O)c2O)C(=O)O[C@@H](C)[C@@H]1OC(=O)CC(C)C` [Antimycin A] here?
**A.** > 10 µM

**Q.** With `NS(=O)(=O)c1ccc(N=Nc2c(O)[nH]c3ccc(Br)cc23)cc1` [CDK2 inhibitor II] as the compound, how does the CC50 at 22 h read?
**A.** > 40 µM

**Q.** For `O=c1cc(CN2CCOCC2)occ1OCCCCCSc1ccnc2cc(C(F)(F)F)ccc12` [EHT1864], which CC50 at 22 h is on record?
**A.** > 20 µM

**Q.** Which CC50 at 22 h does the source give for `Cc1oncc1C(=O)Nc1ccc(C(F)(F)F)cc1` [Leflunomide] here?
**A.** > 40 µM

**Q.** With `CC[C@H](CO)Nc1nc(NCc2ccccc2O)c2ncn(C(C)C)c2n1` [Olomoucine II] as the compound, how does the CC50 at 22 h read?
**A.** > 40 µM

**Q.** Which CC50 at 22 h does the source give for `O=C(O)c1cc(/N=N/c2ccc(O)c(C(=O)O)c2)ccc1O` [Olsalazine sodium] here?
**A.** > 40 µM

**Q.** Which CC50 at 22 h does the source give for `CCOc1cc2ncc(C#N)c(Nc3ccc(F)c(Cl)c3)c2cc1NC(=O)/C=C/CN(C)C` [Pelitinib] here?
**A.** > 40 µM

**Q.** For `O=C1Cc2c([nH]c3ccc(Br)cc23)-c2ccccc2N1` [kenpaullone], which CC50 at 22 h is on record?
**A.** > 40 µM
